Tests used:
D. suzukii = test: Infestation of pre-odour-treated blueberries, emergence of adult flies; format: in vivo, Drosophila suzukii; conditions: 48 hours with adult flies, counted after 14 days
Procedure: Adult mixed female and male flies 20 (in the experiments below, D. suzukii flies) are placed in a cylindrical cage 60a with mesh roofing 80 for ventilation. Fruits 40 (in the experiments below 8 blueberries were used) are placed into a petri dish bottom 60b at the bottom of the cage 60a.
The blueberries were treated with (E)-2-hexenal and then exposed to flies. The impact of 1% vol, 5% vol and 10% vol aqueous emulsions of (E)-2-hexenal (obtained by dissolving the VOC in deionized water (DI) containing 1% (v/v) Tween 20 hydrophilic emulsifier) on egg-laying and the survival and development of larvae in pre-treated blueberries were compared to water-treated controls. In particular, the number of flies emerging after 14 days at ambient temperature was counted, following 48 hours of incubation of the treated blueberries with adult flies. The results of this analysis are shown on FIG. 6B. […] Significance was assessed by one-way ANOVA followed by Bonferroni correction at p≤0.05 and post-hoc two-sample t-test.
Eight ripe blueberries were dipped into 10 mL of a 1%, 5% or 10% aqueous emulsion of (E)-2-hexenal or deionised water as a control and left to air dry. They were then placed in a Petri dish at the bottom of a cylindrical plastic fly cage (∅=5.5 cm, h=7.5 cm), together with 20 mixed (10 females, 10 males) adult D. suzukii flies. The flies were exposed to the odour-treated blueberries during 48 hours at ambient room temperature conditions, after which they were removed and discarded. The blueberries were then transferred into an empty fly vial with cotton lids, and after 14 days at ambient room temperature conditions, the emergence of adult D. suzukii was examined by counting the number of flies. The assay was repeated 5 times.

D. suzukii larvae = test: Survival and development of larvae in pre-infested blueberries; format: in vivo, Drosophila suzukii; conditions: counted after 12 days
Procedure: To investigate the impact of (E)-2-hexenal on the emergence of D. suzukii, eight ripe, untreated blueberries were placed in the cage 60a together with adult D. suzukii flies for 4 days. All flies were then removed and discarded and half of the pre-infested blueberries was dipped into 10 mL of a 1%, 5% or 10% E-2-hexenal aqueous emulsion (as above), while the other half was dipped in 10 mL deionized water as a control. Survival of D. suzukii larvae was measured by counting the number of adult flies that emerged from the odour-treated blueberries versus the control condition after 12 days.
The percentage of adult fly emergence under the treated and untreated conditions relative to the sum of all flies that emerged under both conditions in each assay was calculated. The results of these experiments are shown on FIG. 6C (1% vol (E)-2-hexenal), FIG. 6D (5% vol. (E)-2-hexenal), and FIG. 6E (10% vol. (E)-2-hexenal).
Eight ripe, untreated blueberries were placed in a Petri dish at the bottom of a cylindrical plastic fly cage together with 20 mixed (10 females, 10 males) adult D. suzukii flies for 4 days. All flies were then removed and discarded and half of the pre-infested blueberries was dipped into 10 mL of a 1%, 5% or 10% (E)-2-hexenal aqueous emulsion, while the other half was dipped in 10 mL deionised water as a control. The blueberries were then left to air dry, then placed in empty fly vials with cotton lids and left at ambient room temperature conditions. Survival of D. suzukii larvae was measured by counting the number of adult flies that emerged from the odour-treated blueberries versus the control condition after 12 days. The assay was repeated 5 times.

Which “fly emergence from pre-treated blueberries versus untreated” value (D. suzukii; 1% aqueous emulsion) does the source give for `CCC/C=C/C=O` [(E)-2-hexenal] here?
Its value is “not significantly different from untreated berries”.

What about the “fly emergence from pre-treated blueberries versus untreated” value (D. suzukii; 5% aqueous emulsion) of the same compound?
Its value is “significant reduction of fly emergence”.

And the “fly emergence from pre-treated blueberries versus untreated” value (D. suzukii; 10% aqueous emulsion)?
Its value is “significant reduction of fly emergence”.

And the “adult fly emergence from pre-infested blueberries versus control” value (D. suzukii larvae; 1% vol aqueous emulsion dip)?
The value was “not statistically significantly (NS) different from the control condition”.

And the “adult fly emergence from pre-infested blueberries versus control” value (D. suzukii larvae; 5% vol aqueous emulsion dip)?
Its value is “does not result in any adult fly emergence”.

And the “adult fly emergence from pre-infested blueberries versus control” value (D. suzukii larvae; 10% vol aqueous emulsion dip)?
The value was “does not result in any adult fly emergence”.

Reference: patent publication US11779015B2, “Pesticide compositions” (FUNDACIÓ CENTRE DE REGULACIÓ GENÒMICA, priority 2017, dated 2023)
